Measurements from PubChem BioAssay AID328 (DTP/NCI, 2004).
Inconclusive results and toxic doses are left out.

Tested on: BDF1 mice, P388 leukemia ip, median survival T/C
Test: NCI In Vivo Anticancer Drug Screen. Data for tumor model P388 Leukemia (intraperitoneal) in B6D2F1 (BDF1) mice
Settings: endpoint: median survival time, higher = longer survival
In short: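 Compound-treated tumour-bearing mice were compared with vehicle-treated controls. Survival was recorded, and the value is the treated-group measurement divided by the control-group measurement (T/C).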

[1] = dose: 50.0 mg/kg/injection, schedule: Q04DX003 (ip), vehicle: saline
[2] = dose: 100.0 mg/kg/injection, schedule: Q01DX009 (ip), vehicle: Klucel (hydroxypropylcellulose) (HPC)
[3] = dose: 200.0 mg/kg/injection, schedule: Q04DX003 (ip), vehicle: Klucel (hydroxypropylcellulose) (HPC)
[4] = dose: 12.5 mg/kg/injection, schedule: Q01DX009 (ip), vehicle: saline with Tween-80
[5] = dose: 25.0 mg/kg/injection, schedule: Q01DX009 (ip), vehicle: saline with Tween-80
[6] = dose: 6.25 mg/kg/injection, schedule: Q01DX009 (ip), vehicle: saline with Tween-80
[7] = dose: 100.0 mg/kg/injection, schedule: Q04DX003 (ip), vehicle: saline with Tween-80
[8] = dose: 200.0 mg/kg/injection, schedule: Q04DX003 (ip), vehicle: saline with Tween-80
[9] = dose: 400.0 mg/kg/injection, schedule: Q04DX003 (ip), vehicle: saline with Tween-80
[10] = dose: 100.0 mg/kg/injection, schedule: Q04DX003 (ip), vehicle: Klucel (hydroxypropylcellulose) (HPC)
[11] = dose: 50.0 mg/kg/injection, schedule: Q01DX009 (ip), vehicle: saline with Tween-80
[12] = dose: 100.0 mg/kg/injection, schedule: Q01DX009 (ip), vehicle: saline with Tween-80
[13] = dose: 200.0 mg/kg/injection, schedule: Q01DX009 (ip), vehicle: saline with Tween-80

`CC1(C)N=C(N)N=C(N)N1c1ccc(CCCCc2ccc(S(=O)(=O)F)cc2)c(Cl)c1` was tested, and the T/C (dose: 0.75 mg/kg/injection, schedule: Q01DX009 (ip), vehicle: saline) was 160 % of control, the T/C (dose: 1.0 mg/kg/injection, schedule: Q01DX009 (ip), vehicle: saline) was 150 % of control and the T/C (dose: 1.5 mg/kg/injection, schedule: Q01DX009 (ip), vehicle: saline) was 151 % of control. The T/C (dose: 1.78 mg/kg/injection, schedule: Q01DX009 (ip), vehicle: saline) was 168 % of control, the T/C (dose: 2.25 mg/kg/injection, schedule: Q01DX009 (ip), vehicle: saline) was 174 % of control and the T/C (dose: 2.66 mg/kg/injection, schedule: Q01DX009 (ip), vehicle: saline) was 174 % of control. The T/C (dose: 4.0 mg/kg/injection, schedule: Q01DX009 (ip), vehicle: saline) was 157 % of control, the T/C (dose: 4.4 mg/kg/injection, schedule: Q01DX009 (ip), vehicle: saline) was 174 % of control and the T/C (dose: 6.0 mg/kg/injection, schedule: Q01DX009 (ip), vehicle: saline) was 158 % of control. For the same compound, the T/C (dose: 6.6 mg/kg/injection, schedule: Q01DX009 (ip), vehicle: saline) was 173 % of control, the T/C (dose: 10.0 mg/kg/injection, schedule: Q01DX009 (ip), vehicle: saline) was 201 % of control and the T/C (dose: 12.5 mg/kg/injection, schedule: Q04DX003 (ip), vehicle: saline) was 118 % of control. The T/C (dose: 15.0 mg/kg/injection, schedule: Q01DX009 (ip), vehicle: saline) was 204 % of control, the T/C (dose: 18.7 mg/kg/injection, schedule: Q01DX009 (ip), vehicle: saline) was 195 % of control and the T/C (dose: 37.5 mg/kg/injection, schedule: Q01DX009 (ip), vehicle: saline) was 245 % of control. For the same compound, the T/C [1] was 154 % of control and the T/C (dose: 75.0 mg/kg/injection, schedule: Q04DX003 (ip), vehicle: saline) was 150 % of control.

For `CCCCCCCCCCCC[N+](C)(C)Cc1ccccc1`, the T/C (dose: 0.43 mg/kg/injection, schedule: Q04DX003 (ip), vehicle: saline) was 90 % of control, the T/C (dose: 0.78 mg/kg/injection, schedule: Q01DX009 (ip), vehicle: saline) was 109 % of control and the T/C (dose: 0.87 mg/kg/injection, schedule: Q04DX003 (ip), vehicle: saline) was 100 % of control. For the same compound, the T/C (dose: 1.56 mg/kg/injection, schedule: Q01DX009 (ip), vehicle: saline) was 109 % of control, the T/C (dose: 1.75 mg/kg/injection, schedule: Q04DX003 (ip), vehicle: saline) was 100 % of control and the T/C (dose: 2.05 mg/kg/injection, schedule: Q01DX009 (ip), vehicle: saline) was 161 % of control. The T/C (dose: 3.5 mg/kg/injection, schedule: Q04DX003 (ip), vehicle: saline) was 109 % of control.

In the case of `CCCOP(=S)(N1CC1)N1CC1`, the T/C (dose: 25.0 mg/kg/injection, schedule: Q01DX009 (ip), vehicle: other) is reported as 100 % of control, the T/C (dose: 50.0 mg/kg/injection, schedule: Q04DX003 (ip), vehicle: Klucel (hydroxypropylcellulose) (HPC)) is reported as 116 % of control and the T/C [2] is reported as 100 % of control. For the same compound, the T/C (dose: 100.0 mg/kg/injection, schedule: Q01DX009 (ip), vehicle: other) was 150 % of control and the T/C [3] was 183 % of control.

For `O=C1CCCN1.O=C1CCCN1.[Br][Co][Br]`, the T/C (dose: 25.0 mg/kg/injection, schedule: Q01DX009 (ip), vehicle: saline) was 108 % of control, the T/C (dose: 44.0 mg/kg/injection, schedule: Q01DX009 (ip), vehicle: saline) was 109 % of control and the T/C (dose: 50.0 mg/kg/injection, schedule: Q01DX009 (ip), vehicle: saline) was 113 % of control. The T/C [1] was 105 % of control and the T/C (dose: 100.0 mg/kg/injection, schedule: Q04DX003 (ip), vehicle: saline) was 111 % of control.

With `COc1ccc(-c2cc(C)n(C)[n+]2C)cc1` the T/C [4] was 103 % of control and the T/C [5] was 109 % of control.

`O=C(Nc1cccc(C(=O)Nc2ccc(C3=NCCN3)cc2)c1)c1ccc(C2=NCCN2)cc1` was tested, and the T/C (dose: 16.5 mg/kg/injection, schedule: Q01DX009 (ip), vehicle: saline) was 122 % of control.

With `CCCCCCCCCCCC1=NCCN1` the T/C (dose: 3.13 mg/kg/injection, schedule: Q01DX009 (ip), vehicle: saline with Tween-80) was 96 % of control, the T/C [6] was 100 % of control and the T/C [4] was 104 % of control. For the same compound, the T/C (dose: 12.5 mg/kg/injection, schedule: Q04DX003 (ip), vehicle: saline with Tween-80) was 96 % of control.

In the case of `CN(C)c1ccccc1.[C-]#[O+].[C-]#[O+].[C-]#[O+].[Cr]`, the T/C [7] is reported as 91 % of control.

`Cc1ccc(NC(=O)OCCOc2ccc(-c3ccccc3)cc2)c([N+](=O)[O-])c1` was tested, and the T/C (dose: 12.5 mg/kg/injection, schedule: Q01DX009 (ip), vehicle: DMSO) was 100 % of control, the T/C (dose: 25.0 mg/kg/injection, schedule: Q01DX009 (ip), vehicle: DMSO) was 119 % of control and the T/C (dose: 50.0 mg/kg/injection, schedule: Q01DX009 (ip), vehicle: DMSO) was 102 % of control.

In the case of `OCCN(CCO)c1cc(O)cc(O)c1`, the T/C [7] is reported as 106 % of control, the T/C [8] is reported as 120 % of control and the T/C [9] is reported as 117 % of control.

For `C[C@@H]1CC2=CC(=O)C=C[C@]2(C)[C@H]2CC[C@@]3(C)[C@@H](CC[C@]3(C)O)[C@H]12`, the T/C (dose: 50.0 mg/kg/injection, schedule: Q01DX009 (sc), vehicle: steriod suspending solution) was 95 % of control, the T/C [2] was 88 % of control and the T/C (dose: 100.0 mg/kg/injection, schedule: Q01DX009 (sc), vehicle: steriod suspending solution) was 90 % of control. For the same compound, the T/C [10] was 91 % of control, the T/C (dose: 200.0 mg/kg/injection, schedule: Q01DX009 (ip), vehicle: Klucel (hydroxypropylcellulose) (HPC)) was 100 % of control and the T/C (dose: 200.0 mg/kg/injection, schedule: Q01DX009 (sc), vehicle: steriod suspending solution) was 86 % of control. The T/C [3] was 95 % of control, the T/C (dose: 400.0 mg/kg/injection, schedule: Q01DX009 (ip), vehicle: Klucel (hydroxypropylcellulose) (HPC)) was 88 % of control and the T/C (dose: 400.0 mg/kg/injection, schedule: Q04DX003 (ip), vehicle: Klucel (hydroxypropylcellulose) (HPC)) was 91 % of control.

With `CCN1C=NNc2ccc(Cl)cc2C1=O` the T/C [7] was 97 % of control, the T/C [8] was 97 % of control and the T/C [9] was 100 % of control.

For `CCOc1ccc(NC(=O)C23CC4CC(CC(C4)C2)C3)cc1`, the T/C [4] was 100 % of control, the T/C [5] was 100 % of control and the T/C [11] was 100 % of control.

For `O=C1CC(SC(=S)C2CCCC2=O)C(=O)O1` (stereo not given), the T/C [11] was 122 % of control.

With `O=[N+]([O-])c1cc([N+](=O)[O-])c(NN(c2ccc(Cl)cc2)c2ccc(Cl)cc2)c([N+](=O)[O-])c1` the T/C (dose: 50.0 mg/kg/injection, schedule: Q01DX009 (ip), vehicle: Klucel (hydroxypropylcellulose) (HPC)) was 109 % of control, the T/C [2] was 113 % of control and the T/C [10] was 118 % of control. The T/C [3] was 118 % of control.

For `CS(=O)(=O)OCC(OS(C)(=O)=O)C(COS(C)(=O)=O)OS(C)(=O)=O` (stereo not given), the T/C [11] was 100 % of control, the T/C (dose: 50.0 mg/kg/injection, schedule: Q04DX003 (ip), vehicle: saline with Tween-80) was 95 % of control and the T/C [12] was 102 % of control. For the same compound, the T/C [7] was 91 % of control, the T/C [13] was 93 % of control and the T/C [8] was 95 % of control. For the same compound, the T/C (dose: 400.0 mg/kg/injection, schedule: Q01DX009 (ip), vehicle: saline with Tween-80) was 88 % of control and the T/C [9] was 91 % of control.

With `O=C(O)C(Br)(C(=O)O)c1ccccc1` the T/C (dose: 100.0 mg/kg/injection, schedule: Q04DX002 (ip), vehicle: saline with Tween-80) was 93 % of control, the T/C (dose: 200.0 mg/kg/injection, schedule: Q04DX002 (ip), vehicle: saline with Tween-80) was 97 % of control and the T/C (dose: 400.0 mg/kg/injection, schedule: Q04DX002 (ip), vehicle: saline with Tween-80) was 93 % of control.

For `COc1ccc2[nH]c3c(C)c4cc[n+](C)cc4c(C)c3c2c1`, the T/C [6] was 99 % of control.

`CCC(C)P(=O)(N1CC1)N1CC1` (stereo not given) was tested, and the T/C (dose: 37.5 mg/kg/injection, schedule: Q04DX003 (ip), vehicle: saline) was 108 % of control.

`CSCSCC(CO)NS(=O)(=O)c1ccc(C)cc1` (stereo not given) was tested, and the T/C [7] was 100 % of control, the T/C [8] was 100 % of control and the T/C [9] was 100 % of control.

In the case of `COc1cccc(C2NC(=O)c3c(n[nH]c3N)S2)c1O` (stereo not given), the T/C [11] is reported as 103 % of control, the T/C [12] is reported as 99 % of control and the T/C [13] is reported as 103 % of control.

In the case of `CS(=O)(=O)OCCSc1nc2ccccc2n1Cc1ccccc1`, the T/C (dose: 25.0 mg/kg/injection, schedule: Q01DX001 (ip), vehicle: saline with Tween-80) is reported as 100 % of control, the T/C (dose: 50.0 mg/kg/injection, schedule: Q01DX001 (ip), vehicle: saline with Tween-80) is reported as 106 % of control and the T/C (dose: 100.0 mg/kg/injection, schedule: Q01DX001 (ip), vehicle: saline with Tween-80) is reported as 101 % of control.
